Results taken from PubChem BioAssay (NCI).
Several values for one entry are separate records, joined by “and”; a condition that tells them apart may be missing. Identical values can stand only once.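 Values below derive from 48-hour exposures of cells grown in 96-well plates, with endpoints linearly interpolated between the two concentrations bracketing the appropriate inhibition level. GI50 = concentration required for 50% inhibition of growth. TGI: concentration producing complete growth inhibition.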

Key:
Test in all cases: NCI anticancer screen, dose series, 48 h
[1] = tested on: A549 NSCLC
[2] = tested on: HCC-2998 colon
[3] = tested on: HOP-62 NSCLC
[4] = tested on: LOX IMVI melanoma
[5] = tested on: NCI-H226 lung
[6] = tested on: OVCAR-3 ovarian
[7] = tested on: RPMI-8226 leukemia
[8] = tested on: SNB-19 CNS
[9] = tested on: T-47D breast
[10] = tested on: UACC-257 melanoma

Structure (SMILES)	GI50 [1]	TGI [1]	GI50 [2]	TGI [2]	GI50 [3]	TGI [3]	GI50 [4]	TGI [4]	GI50 [5]	TGI [5]	GI50 [6]	TGI [6]	GI50 [7]	TGI [7]	GI50 [8]	TGI [8]	GI50 [9]	TGI [9]	GI50 [10]	TGI [10]
Cc1cccc2c(=O)c3c(sc12)c(NCCN)nc1ccccc13	0.823 µM	1.63 µM	0.798 µM	1.58 µM	0.728 µM	1.65 µM	0.783 µM	1.48 µM	0.904 µM	2.33 µM	0.888 µM	1.79 µM	0.851 µM	1.89 µM	0.948 µM	2.56 µM	0.685 µM	1.6 µM	0.966 µM	1.99 µM
O=C1C=CC(=O)N1CCCCCCCCCCN1C(=O)C=CC1=O	18.2 µM	41.5 µM	26 µM	71.2 µM	16.2 µM	31.3 µM	11.3 µM	24.4 µM	17.1 µM	34.4 µM	4.1 µM	15.1 µM	6.72 µM	57.7 µM	37.6 µM	> 100 µM	15.3 µM	40.7 µM	11.5 µM	24.8 µM
Cc1cc(NC(=O)C(=O)Cc2nc3ccccc3s2)ccc1Cl		> 100 µM		> 100 µM		> 100 µM		> 100 µM		> 100 µM		> 100 µM		> 100 µM		> 100 µM		> 100 µM		> 100 µM
N=C1N=Nc2nc(C3(c4nc5n(c4O)C(=N)N=N5)Cc4ccccc4C3=O)c(O)n21 (stereo not given)		> 100 µM		> 100 µM		> 100 µM		> 100 µM		> 100 µM		> 100 µM		> 100 µM		> 100 µM		> 100 µM		> 100 µM
COc1ccc(-c2oncc2-c2cc(OC)c3c(c2)OCO3)cc1	3.58 µM	> 100 µM	6.36 µM	> 100 µM	3.91 µM	> 71.1 µM	4.01 µM	> 60.1 µM	9.53 µM	> 93.8 µM	3.15 µM	39 µM	3.93 µM	> 39.5 µM	5.25 µM	> 100 µM	4.29 µM	> 100 µM	> 20 µM	> 100 µM
COc1ccc(C2SC(C)C(=O)N2NC(=O)C(O)c2ccccc2)cc1 (stereo not given)	> 100 µM	> 100 µM	> 100 µM	> 100 µM	> 100 µM	> 100 µM	> 100 µM	> 100 µM	> 100 µM	> 100 µM	> 100 µM	> 100 µM	> 100 µM	> 100 µM	> 100 µM	> 100 µM	> 100 µM	> 100 µM	> 100 µM	> 100 µM
NS(=O)(=O)c1ccc(NCc2cnc3ccccc3c2)cc1		> 100 µM		> 100 µM		> 100 µM				> 100 µM		> 100 µM		> 100 µM		> 100 µM		> 100 µM		> 100 µM
Cn1c2ccccc2c(=S)c2cc(NC(=O)CCCCC(=O)Nc3ccc4c(c3)c(=S)c3ccccc3n4C)ccc21		> 100 µM		> 100 µM		> 100 µM		> 100 µM		> 100 µM		> 100 µM		> 100 µM		> 100 µM		> 100 µM		> 100 µM
Clc1cccc(Cc2cn3cc(-c4ccccc4)nc3s2)c1	3.93 µM	> 100 µM	2.39 µM	> 100 µM	9.1 µM	40.5 µM	0.629 µM	> 100 µM	49.2 µM	> 100 µM	9.07 µM	> 100 µM	7.4 µM	> 100 µM	8.92 µM	> 100 µM	2.33 µM	> 100 µM	10.3 µM	> 100 µM
O=S(=O)(c1ccccc1)C1CN(Cc2ccccc2)CCN(Cc2ccccc2)C1		> 100 µM		> 100 µM		> 100 µM		> 61.5 µM		> 100 µM		> 95.8 µM		53.4 µM		> 100 µM		> 100 µM		> 100 µM
CN(C)CCOc1cccc(NC2=C(Cl)C(=O)C(Nc3cccc(OCCN(C)C)c3)=C(Cl)C2=O)c1	2.19 µM	3.98 µM	1.44 µM	3 µM	2.1 µM	4.22 µM	0.191 µM	0.407 µM	1.81 µM	3.93 µM	0.18 µM	0.334 µM	0.306 µM	1.03 µM	1.72 µM	3.31 µM	0.189 µM	0.453 µM	0.765 µM	2.03 µM
O=C1[C@H](c2ccccc2)C2c3ccccc3CCN12 (stereo not given in full)	> 100 µM	> 100 µM	> 100 µM	> 100 µM	> 100 µM	> 100 µM	> 100 µM	> 100 µM	> 100 µM	> 100 µM	> 100 µM	> 100 µM	> 100 µM	> 100 µM	> 100 µM	> 100 µM	> 100 µM	> 100 µM	> 100 µM	> 100 µM
NNc1nc(-c2ccccn2)nc2sc3c(c12)CCCCCC3	3.18 µM	> 100 µM	8.31 µM	> 100 µM	8.57 µM	> 100 µM	6.17 µM	> 100 µM	10.3 µM	89.1 µM	5.31 µM	93.7 µM	3.25 µM	24.5 µM			5.01 µM	> 100 µM	6.61 µM	77.4 µM
COc1cc2c(cc1C)NC(=O)/C2=C/c1c(C)nc2sc(C)cn12	60.8 µM	> 100 µM	31.7 µM	> 100 µM	> 100 µM	> 100 µM	> 100 µM	> 100 µM	82.8 µM	> 100 µM	74.7 µM	> 100 µM	31.3 µM	> 100 µM	> 100 µM	> 100 µM	64.4 µM	> 100 µM	62.3 µM	> 100 µM
OCCCNC(=S)Nc1ccc(-c2nc3ccccc3s2)cc1	33.7 µM	> 100 µM	13.7 µM	26.8 µM	31.8 µM	> 100 µM	17.9 µM	38.2 µM	18.5 µM	49.6 µM	15 µM	59.8 µM	26.5 µM	> 100 µM	32.2 µM	> 100 µM	16.9 µM	> 100 µM	27.1 µM	51.9 µM
CCN1CCN(Cc2ccc3cc(C(=O)Nc4cc(NC(=O)c5ccc6c(c5)OCCO6)ccc4F)ccc3n2)CC1	0.0511 µM	11.6 µM	0.0511 µM	5.73 µM	0.0617 µM	12 µM	0.0343 µM	1.43 µM		3.45 µM	0.0567 µM	0.766 µM	0.0403 µM	0.325 µM	0.165 µM	11.2 µM	0.0451 µM	23 µM	0.133 µM	10.5 µM
Cn1cc(C2=C(c3cccc(NCC(O)CO)c3)C(=O)NC2=O)c2cc(Cl)ccc21 (stereo not given)	4.74 µM	17.6 µM	6.56 µM	17.9 µM	4.9 µM	18 µM	3.05 µM	15.1 µM	3.34 µM	11.9 µM	1.06 µM	7.78 µM	5.56 µM	13.9 µM	7.28 µM	19.6 µM	4.29 µM	15 µM	5.51 µM	15.4 µM
COc1ccc2cc(C(=O)/C=C/c3ccccc3OC)ccc2c1	4.69 µM	11.9 µM	5.92 µM	13 µM	7.51 µM	25.6 µM	0.863 µM	3.89 µM	3.24 µM	18.7 µM	0.821 µM	3.77 µM	1.65 µM	10.6 µM	4.37 µM	> 51.4 µM	2.58 µM	> 89.1 µM	9.78 µM	27.9 µM
CSc1ccc2c(c1)C(=O)c1c-2n(CCCN=[N+]=[N-])c(=O)c2cc([N+](=O)[O-])ccc12	3.25 µM	> 100 µM	1.57 µM	66 µM	0.623 µM	29 µM	1.22 µM	> 100 µM	8.74 µM	> 100 µM	8.87 µM	> 89.5 µM	1.72 µM	23.2 µM	1.18 µM	> 100 µM	4.58 µM	> 100 µM	39.9 µM	> 100 µM
COc1ccc2c(c1)N(CCO)C1=C(C(=O)OC1)C2c1cccc(Br)c1 (stereo not given)	0.113 µM	19.6 µM	0.184 µM	15.7 µM	0.132 µM	> 76.3 µM	0.0814 µM	18.8 µM	0.175 µM	2.56 µM	0.0338 µM	0.135 µM	0.184 µM	28.4 µM	0.141 µM	> 100 µM	26.1 µM	> 100 µM	0.034 µM	40.7 µM
CCOC(=O)C1=C(N)Oc2cc(OC)ccc2C1c1ccc(F)c(F)c1 (stereo not given)	2.08 µM	19.4 µM	4.14 µM	18.4 µM	2.13 µM	19.4 µM	1.36 µM	19 µM	12.9 µM	32.7 µM	0.497 µM	6.09 µM	2.73 µM	18.2 µM	1.83 µM	17.4 µM	1.72 µM	20 µM	11.5 µM	24 µM
COc1cc2c3c(n(CCCN4CCOCC4)c(=O)c2cc1OC)-c1cc2c(cc1C3=O)OCO2	3.43 µM	> 100 µM	10.7 µM	65.4 µM	1.86 µM	55.7 µM		> 35 µM	4.6 µM	> 81.8 µM	15.6 µM	> 50.7 µM	0.608 µM	16.8 µM	> 38.6 µM	> 100 µM	> 50.8 µM	> 100 µM	> 51.5 µM	> 100 µM
COc1ccc2c(c1)c(=O)oc1cc(OC/C(=N\O)c3ccc(F)cc3)ccc12	27.8 µM	> 100 µM	16.4 µM	33.5 µM	18.9 µM	41.8 µM	17.8 µM	33 µM	37 µM	> 100 µM	20.4 µM	47.4 µM	16.7 µM	56.4 µM	12.2 µM	58.8 µM	28.4 µM	> 100 µM	25.4 µM	91.1 µM
O=CNc1ccc2c(c1)Cc1cc([N+](=O)[O-])ccc1-2	5.75 µM	> 77.4 µM	1.3 µM	> 100 µM	8.71 µM	> 100 µM	2.62 µM	98.5 µM	27.7 µM	> 100 µM	1.56 µM	> 100 µM	> 100 µM	> 100 µM	5.63 µM	> 100 µM	> 100 µM	> 100 µM	5.39 µM	> 100 µM
COC(=O)C12OCC34C(CC5C(C)=CC(=O)C(O)C5(C)C3C(O)C1O)OC(=O)C(OC(=O)CC(C)C)C24 (stereo not given)	< 0.0399 µM and 0.05 µM		< 0.0281 µM		0.0439 µM and 0.05 µM		< 0.0336 µM and 0.05 µM		< 0.0345 µM		< 0.0518 µM		< 0.0289 µM					0.006 µM	0.0788 µM and 0.05 µM	
COc1cccc(-c2cc(NCc3ccc4c(c3)OCO4)nc(N)n2)c1	0.057 µM	14.9 µM	0.137 µM	2.9 µM	0.362 µM	17.4 µM	0.0773 µM	19.4 µM	11.7 µM	32.5 µM	0.0409 µM	0.988 µM	0.172 µM	34.2 µM	0.143 µM	45.4 µM	16.9 µM	50.6 µM		
O=C(Nc1cccc(-n2cc(-c3ccncc3)c(-c3ccc(O)c(Cl)c3)n2)c1)Nc1ccc(Cl)c(C(F)(F)F)c1	1.83 µM	5.86 µM	2.81 µM	6.98 µM	3.15 µM	9.77 µM	1.61 µM	3.21 µM	2.02 µM	4.46 µM			1.67 µM	4.63 µM	3.63 µM	> 100 µM	2.07 µM	6.83 µM	1.98 µM	4.39 µM
